In the NIST ThermoML archive (doi:10.1016/j.jct.2006.10.016):

Key:
[1] = 101 kPa, Liquid
[2] = xn = mol fraction of the nth substance listed; settings: 101 kPa, Liquid

CCO [ethanol]
[1]
Settings | mass density [kg/m3] | viscosity [mPa·s]
303.15 K | 783.4 | 1.086
308.15 K | 779 | 0.9732
313.15 K | 774.6 | 0.8596
318.15 K | 769.8 | 0.8284
323.15 K | 766.1 | 0.7493

CCCO [propan-1-ol] + C[S+](C)[O-]
[2], x2 = 0
Settings | mass density [kg/m3] | viscosity [mPa·s]
303.15 K | 795.5 | 1.733
308.15 K | 791.1 | 1.534
313.15 K | 787 | 1.367
318.15 K | 783.3 | 1.234
323.15 K | 779.5 | 1.1

CO [methanol] + C[S+](C)[O-]
[2], x2 = 0
Settings | mass density [kg/m3] | viscosity [mPa·s]
303.15 K | 781.3 | 0.5178
308.15 K | 778.2 | 0.4843
313.15 K | 772.4 | 0.4515
318.15 K | 767.8 | 0.4233
323.15 K | 762.7 | 0.395

CO [methanol]
[1]
Settings | mass density [kg/m3] | viscosity [mPa·s]
303.15 K | 781.3 | 0.5178
308.15 K | 778.2 | 0.4843
313.15 K | 772.4 | 0.4515
318.15 K | 767.8 | 0.4233
323.15 K | 762.7 | 0.395

CCO [ethanol] + C[S+](C)[O-]
[2], x2 = 0
Settings | mass density [kg/m3] | viscosity [mPa·s]
303.15 K | 783.4 | 1.086
308.15 K | 779 | 0.9732
313.15 K | 774.6 | 0.8596
318.15 K | 769.8 | 0.8284
323.15 K | 766.1 | 0.7493

C[S+](C)[O-] [dimethyl sulfoxide] + CC(C)O
[2]
Settings | mass density, 303.15 K [kg/m3] | mass density, 308.15 K [kg/m3] | mass density, 313.15 K [kg/m3] | mass density, 318.15 K [kg/m3] | mass density, 323.15 K [kg/m3] | viscosity, 303.15 K [mPa·s] | viscosity, 308.15 K [mPa·s] | viscosity, 313.15 K [mPa·s] | viscosity, 318.15 K [mPa·s] | viscosity, 323.15 K [mPa·s]
x1 = 0.1001 | 806.4 | 802.2 | 798.2 | 793.2 | 787.9 | 1.525 | 1.352 | 1.2 | 1.078 | 0.9656
x1 = 0.2011 | 834.9 | 830.4 | 826 | 820.7 | 815.3 | 1.391 | 1.246 | 1.118 | 1.01 | 0.9102
x1 = 0.3005 | 865 | 860.4 | 856.3 | 850.6 | 845.2 | 1.306 | 1.18 | 1.078 | 0.9836 | 0.8887
x1 = 0.4007 | 895.8 | 891 | 887.1 | 881.3 | 875.8 | 1.335 | 1.209 | 1.103 | 1.011 | 0.9133
x1 = 0.4994 | 926.6 | 921.6 | 917.9 | 911.9 | 906.5 | 1.341 | 1.223 | 1.124 | 1.036 | 0.9383
x1 = 0.601 | 958.9 | 953.7 | 950 | 943.8 | 938.5 | 1.396 | 1.274 | 1.173 | 1.08 | 0.9843
x1 = 0.701 | 991.1 | 985.6 | 982.2 | 975.7 | 970.4 | 1.474 | 1.343 | 1.233 | 1.136 | 1.041
x1 = 0.7994 | 1023.3 | 1017.6 | 1014.5 | 1007.6 | 1002.3 | 1.55 | 1.41 | 1.31 | 1.198 | 1.108
x1 = 0.9005 | 1056.9 | 1051 | 1048.2 | 1041 | 1035.8 | 1.671 | 1.516 | 1.401 | 1.285 | 1.171
x1 = 1 | 1090.7 | 1084.7 | 1082.3 | 1075.1 | 1070 | 1.832 | 1.67 | 1.537 | 1.408 | 1.289

C[S+](C)[O-] [dimethyl sulfoxide] + CCCO
[2]
Settings | mass density, 303.15 K [kg/m3] | mass density, 308.15 K [kg/m3] | mass density, 313.15 K [kg/m3] | mass density, 318.15 K [kg/m3] | mass density, 323.15 K [kg/m3] | viscosity, 303.15 K [mPa·s] | viscosity, 308.15 K [mPa·s] | viscosity, 313.15 K [mPa·s] | viscosity, 318.15 K [mPa·s] | viscosity, 323.15 K [mPa·s]
x1 = 0.1003 | 824.3 | 820.3 | 816.5 | 812.7 | 808.9 | 1.598 | 1.436 | 1.257 | 1.142 | 1.034
x1 = 0.1995 | 853.1 | 848.6 | 844.8 | 840.8 | 836.8 | 1.41 | 1.278 | 1.163 | 1.066 | 0.9724
x1 = 0.2999 | 881.4 | 876.6 | 873.2 | 868.7 | 864.8 | 1.402 | 1.277 | 1.173 | 1.078 | 0.9878
x1 = 0.3994 | 910.1 | 905.3 | 901.7 | 897.1 | 892.9 | 1.393 | 1.273 | 1.17 | 1.084 | 0.9964
x1 = 0.5 | 938.7 | 933.4 | 929.7 | 924.3 | 919.7 | 1.425 | 1.31 | 1.207 | 1.11 | 1.017
x1 = 0.5995 | 968.1 | 962.5 | 958.8 | 953.2 | 948.6 | 1.492 | 1.357 | 1.246 | 1.148 | 1.07
x1 = 0.7002 | 998.2 | 992.2 | 988.8 | 982.3 | 977.6 | 1.532 | 1.4 | 1.29 | 1.201 | 1.1
x1 = 0.7998 | 1027.6 | 1021.6 | 1017.5 | 1011 | 1006.1 | 1.593 | 1.452 | 1.335 | 1.247 | 1.14
x1 = 0.9004 | 1059.4 | 1053 | 1050 | 1043 | 1037.6 | 1.728 | 1.629 | 1.493 | 1.361 | 1.219
x1 = 1 | 1090.7 | 1084.7 | 1082.3 | 1075.1 | 1070 | 1.832 | 1.67 | 1.537 | 1.408 | 1.289

CC(C)O [propan-2-ol] + C[S+](C)[O-]
[2], x2 = 0
Settings | mass density [kg/m3] | viscosity [mPa·s]
303.15 K | 776.4 | 1.792
308.15 K | 772.6 | 1.553
313.15 K | 768.6 | 1.355
318.15 K | 763.9 | 1.182
323.15 K | 758.8 | 1.041

C[S+](C)[O-] [dimethyl sulfoxide] + CCO
[2]
Settings | mass density, 303.15 K [kg/m3] | mass density, 308.15 K [kg/m3] | mass density, 313.15 K [kg/m3] | mass density, 318.15 K [kg/m3] | mass density, 323.15 K [kg/m3] | viscosity, 303.15 K [mPa·s] | viscosity, 308.15 K [mPa·s] | viscosity, 313.15 K [mPa·s] | viscosity, 318.15 K [mPa·s] | viscosity, 323.15 K [mPa·s]
x1 = 0.1008 | 836 | 831.6 | 827.6 | 822.8 | 818.1 | 1.244 | 1.122 | 1.025 | 0.9261 | 0.8551
x1 = 0.2004 | 870.1 | 865.6 | 861.7 | 856.7 | 852.1 | 1.205 | 1.096 | 0.9964 | 0.9126 | 0.8356
x1 = 0.2994 | 902.4 | 897.7 | 894 | 888.8 | 884 | 1.209 | 1.098 | 1.01 | 0.9262 | 0.8544
x1 = 0.4005 | 933.9 | 929 | 925.6 | 920.1 | 915.3 | 1.237 | 1.143 | 1.038 | 0.961 | 0.8876
x1 = 0.4995 | 963.3 | 958.2 | 955 | 949.2 | 944.4 | 1.282 | 1.179 | 1.086 | 1.004 | 0.9264
x1 = 0.6005 | 991.6 | 986.3 | 983.4 | 977.4 | 972.4 | 1.361 | 1.248 | 1.154 | 1.065 | 0.9847
x1 = 0.7012 | 1018.4 | 1013 | 1010.3 | 1004.1 | 999.3 | 1.464 | 1.34 | 1.234 | 1.139 | 1.05
x1 = 0.8011 | 1043.6 | 1038.3 | 1035.9 | 1029.5 | 1024.7 | 1.557 | 1.435 | 1.323 | 1.217 | 1.125
x1 = 0.8999 | 1067.5 | 1062.1 | 1059.8 | 1053.1 | 1048.4 | 1.658 | 1.517 | 1.393 | 1.289 | 1.183
x1 = 1 | 1090.7 | 1084.7 | 1082.3 | 1075.1 | 1070 | 1.832 | 1.67 | 1.537 | 1.408 | 1.289

C[S+](C)[O-] [dimethyl sulfoxide] + CO
[2]
Settings | mass density, 303.15 K [kg/m3] | mass density, 308.15 K [kg/m3] | mass density, 313.15 K [kg/m3] | mass density, 318.15 K [kg/m3] | mass density, 323.15 K [kg/m3] | viscosity, 303.15 K [mPa·s] | viscosity, 308.15 K [mPa·s] | viscosity, 313.15 K [mPa·s] | viscosity, 318.15 K [mPa·s] | viscosity, 323.15 K [mPa·s]
x1 = 0.0998 | 837.8 | 834.7 | 829.9 | 825.2 | 820.4 | 0.5976 | 0.5587 | 0.5228 | 0.4918 | 0.4582
x1 = 0.2004 | 886 | 882.3 | 877.3 | 872.2 | 867.1 | 0.678 | 0.6322 | 0.591 | 0.5532 | 0.5163
x1 = 0.3007 | 925 | 921 | 916.3 | 910.8 | 905.7 | 0.7684 | 0.7147 | 0.6694 | 0.6281 | 0.5857
x1 = 0.3998 | 959.3 | 955 | 950.7 | 944.7 | 939.6 | 0.8719 | 0.8091 | 0.7576 | 0.7073 | 0.6605
x1 = 0.4996 | 988.4 | 983.6 | 979.6 | 973.3 | 968.4 | 0.9887 | 0.9164 | 0.8549 | 0.7972 | 0.7426
x1 = 0.6008 | 1013.9 | 1009 | 1005.6 | 999.4 | 994.4 | 1.123 | 1.037 | 0.9676 | 0.9008 | 0.8357
x1 = 0.699 | 1035.3 | 1030.1 | 1026.9 | 1020.9 | 1016 | 1.272 | 1.172 | 1.09 | 1.012 | 0.9359
x1 = 0.8011 | 1055.5 | 1050.3 | 1047.7 | 1040.9 | 1036.3 | 1.442 | 1.326 | 1.226 | 1.131 | 1.045
x1 = 0.8997 | 1073.7 | 1068.3 | 1065.8 | 1059 | 1054 | 1.629 | 1.492 | 1.379 | 1.269 | 1.167
x1 = 1 | 1090.7 | 1084.7 | 1082.3 | 1075.1 | 1070.1 | 1.832 | 1.67 | 1.537 | 1.408 | 1.289
